Assay results taken from US20250313563A1, “GLYCOGEN SYNTHASE KINASE 3 INHIBITORS AND USES THEREOF” (The Broad Institute, Inc., priority 2022, published 2025).
pIC50: −log10 of the molar value. Read-outs that look alike come from different tables or passages of the source.

Legend:
[1] = target: GSK3b (GST-full length GSK3b) (Homo sapiens (Human), UniProt P49841); experiment: GSK3b TR-FRET kinase assay; type: biochemical
How it was run: (§1)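 In this time-resolved FRET format, kinase reactions contained 200 nM biotinylated, S645-phosphorylated glycogen synthase 631-650 peptide and either isoform-specific ATP (2 μM GSK3b, 4 μM GSK3α) or 1 mM ATP. They were quenched with EDTA after 100 min at ambient temperature. Inhibition curves gave IC50 values.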

[2] = target: GSK3α (GST-full length GSK3α) (Homo sapiens (Human), UniProt P49840); experiment: GSK3α TR-FRET kinase assay; type: biochemical
Chain of GSK3α (GST-full length GSK3α) (P49840 whole entry): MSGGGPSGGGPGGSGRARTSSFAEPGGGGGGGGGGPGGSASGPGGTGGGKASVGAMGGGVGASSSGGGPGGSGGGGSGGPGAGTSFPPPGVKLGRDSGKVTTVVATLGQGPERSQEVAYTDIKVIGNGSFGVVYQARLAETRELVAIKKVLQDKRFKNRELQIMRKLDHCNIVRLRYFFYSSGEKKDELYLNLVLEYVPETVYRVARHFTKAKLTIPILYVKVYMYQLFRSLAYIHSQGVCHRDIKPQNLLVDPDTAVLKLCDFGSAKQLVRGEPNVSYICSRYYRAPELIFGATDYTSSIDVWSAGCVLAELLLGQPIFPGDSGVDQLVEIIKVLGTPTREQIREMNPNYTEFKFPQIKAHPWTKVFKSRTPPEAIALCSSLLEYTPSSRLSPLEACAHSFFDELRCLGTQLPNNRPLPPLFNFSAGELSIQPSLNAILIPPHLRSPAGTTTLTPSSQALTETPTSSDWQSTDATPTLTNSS
How it was run: as §1

[3] = 1 nM GSK3b, 2 μM ATP, 30 minute preincubation, Table 16, read-out: GSK3-B TR-FRET BIOCHEMICAL (TR-FRET)
[4] = 1 nM GSK3α, 4 μM ATP, 30 minute preincubation, Table 16, read-out: GSK3-A TR-FRET BIOCHEMICAL (TR-FRET)
[5] = 1 nM GSK3b, 2 μM ATP, 30 minute preincubation, Table 16, read-out: GSK3-B TR-FRET BIOCHEMICAL (TR-FRET), IC50
[6] = 1 nM GSK3α, 4 μM ATP, 30 minute preincubation, Table 16, read-out: GSK3-A TR-FRET BIOCHEMICAL (TR-FRET), IC50
[7] = 1 nM GSK3b, 2 μM ATP, 30 minute preincubation, read-out: GSK3-B TR-FRET BIOCHEMICAL (TR-FRET), IC50
[8] = GSK3-B (TR-FRET 1 mM ATP), GMean, IC50, 1 mM ATP, geometric mean
[9] = 1 nM GSK3α, 4 μM ATP, 30 minute preincubation, read-out: GSK3-A TR-FRET BIOCHEMICAL (TR-FRET), IC50
[10] = GSK3-A (TR-FRET 1 mM ATP), GMean, IC50, 1 mM ATP, geometric mean
[11] = read-out: GSK3-B (TR-FRET 1 mM ATP), GMean, IC50, 1 mM ATP, geometric mean
[12] = read-out: GSK3-A (TR-FRET 1 mM ATP), GMean, IC50, 1 mM ATP, geometric mean

Chain of GSK3b (GST-full length GSK3b) (P49841 whole entry, canonical isoform): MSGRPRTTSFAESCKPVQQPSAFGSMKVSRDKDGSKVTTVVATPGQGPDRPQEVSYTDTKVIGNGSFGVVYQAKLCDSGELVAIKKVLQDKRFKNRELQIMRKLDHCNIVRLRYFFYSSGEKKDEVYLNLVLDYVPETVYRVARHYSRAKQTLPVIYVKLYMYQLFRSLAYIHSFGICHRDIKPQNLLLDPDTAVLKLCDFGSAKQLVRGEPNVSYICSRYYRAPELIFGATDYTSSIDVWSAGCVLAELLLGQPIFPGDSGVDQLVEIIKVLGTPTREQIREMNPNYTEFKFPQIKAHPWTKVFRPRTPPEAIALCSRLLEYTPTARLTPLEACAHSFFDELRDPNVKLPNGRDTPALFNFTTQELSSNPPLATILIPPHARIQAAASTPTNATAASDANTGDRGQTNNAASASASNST

Row | Compound | pIC50 [1, 5] | pIC50 [2, 6] | also measured
1 | CC1(C)CC(=O)C2=C(Nc3n[nH]cc3C23CCN(S(=O)(=O)c2ccccc2C(F)F)CC3)[C@H]1F [Compound 951839] |  |  | pIC50 [1, 3]: 6.00 to 7.00; pIC50 [2, 4]: ≥ 7.00
2 | CCC1(c2cccc(-c3cc(C(C)C)nn3C)c2)C2=C(CC(C)(C)NC2=O)Nc2n[nH]cc21 (stereo not drawn) [Compound 951842] | 5.30 to 6.00 | 6.00 to 7.00 | 
3 | CC[C@]1(c2cccc(-c3cc(C(C)(C)C)nn3C)c2)C2=C(CC(C)(C)NC2=O)Nc2n[nH]cc21 [Compound 951843] | < 5.30 | 6.00 to 7.00 | 
4 | CC[C@]1(c2cccc(-c3c(C#N)c(C)nn3C)c2)C2=C(CC(C)(C)NC2=O)Nc2n[nH]cc21 [Compound 951844] | 6.00 to 7.00 | ≥ 7.00 | 
5 | CC[C@@]1(c2cccc(-c3cc(C)nn3-c3ccccc3)c2)C2=C(CC(C)(C)NC2=O)Nc2n[nH]cc21 [Compound 951845] | 6.00 to 7.00 | 6.00 to 7.00 | 
6 | CC1(C)CC(=O)C2=C(Nc3n[nH]cc3C23CCN(S(=O)(=O)c2ccccc2C(F)F)CC3)[C@@H]1F [Compound 951846] |  |  | pIC50 [1, 3]: 6.00 to 7.00; pIC50 [2, 4]: ≥ 7.00
7 | CC[C@]1(c2cccc(-c3cnn(Cc4cccc(C(F)(F)F)c4)c3)c2)C2=C(CC(C)(C)NC2=O)Nc2n[nH]cc21 [Compound 951848] | 6.00 to 7.00 | ≥ 7.00 | 
8 | CCC1(c2cccc(-c3cnn(Cc4ccc(C(F)(F)F)cc4)c3)c2)C2=C(CC(C)(C)NC2=O)Nc2n[nH]cc21 (stereo not drawn) [Compound 951849] | 6.00 to 7.00 | ≥ 7.00 | 
9 | CC1(C)CC(=O)C2=C(C1)Nc1n[nH]cc1[C@]21CCN(S(=O)(=O)c2cccc(F)c2)C1 [Compound 951861] |  |  | pIC50 [1, 7]: ≥ 7.00; pIC50 [1, 8]: 6.00 to 7.00; pIC50 [2, 9]: ≥ 7.00; pIC50 [2, 10]: 6.00 to 7.00
10 | CC1(C)CC(=O)C2=C(C1)Nc1n[nH]cc1[C@@]21CCN(S(=O)(=O)c2cccc(F)c2)C1 [Compound 951862] |  |  | pIC50 [1, 3]: ≥ 7.00; pIC50 [2, 4]: ≥ 7.00
11 | Cc1cccc(S(=O)(=O)N2CC[C@]3(C2)C2=C(CC(C)(C)CC2=O)Nc2n[nH]cc23)c1 [Compound 951863] |  |  | pIC50 [1, 7]: ≥ 7.00; pIC50 [1, 8]: 6.00 to 7.00; pIC50 [2, 9]: ≥ 7.00; pIC50 [2, 10]: 6.00 to 7.00
12 | Cc1cccc(S(=O)(=O)N2CC[C@@]3(C2)C2=C(CC(C)(C)CC2=O)Nc2n[nH]cc23)c1 [Compound 951864] |  |  | pIC50 [1, 3]: ≥ 7.00; pIC50 [1, 8]: 5.30 to 6.00; pIC50 [2, 4]: ≥ 7.00; pIC50 [2, 10]: 6.00 to 7.00
13 | CC[C@@]1(c2cccc(C(F)(F)F)c2)C2=C(CCN(c3cc(C)n(C)n3)C2=O)Nc2n[nH]cc21 [Compound 951939] | 6.00 to 7.00 | ≥ 7.00 | 
14 | CC[C@]1(c2cccc(C(F)F)c2)C2=C(CC(C)(C)NC2=O)Nc2n[nH]c(C(F)(F)F)c21 [Compound 951946] | 5.30 to 6.00 | 6.00 to 7.00 | 
15 | CCC1(c2cccc(C(F)F)c2)C2=C(CC(C)(C)NC2=O)Nc2n[nH]c(C(F)(F)F)c21 (stereo not drawn) [Compound 951948] | ≥ 7.00 | ≥ 7.00 | pIC50 [1, 11]: 6.00 to 7.00; pIC50 [2, 12]: ≥ 7.00
16 | CC[C@]1(c2cccc(C(F)(F)F)c2)C2=C(CCN(c3cc(C)n(C)n3)C2=O)Nc2n[nH]cc21 [Compound 951954] | < 5.30 | < 5.30 | 
17 | CC[C@]1(c2cccc(-c3cnn(-c4ccncn4)c3)c2)C2=C(CC(C)(C)NC2=O)Nc2n[nH]cc21 [Compound 952016] | 5.30 to 6.00 | 6.00 to 7.00 | 
18 | CC[C@]1(c2cccc(-c3cc(C(F)(F)F)nn3C)c2)C2=C(CC(C)(C)NC2=O)Nc2n[nH]cc21 [Compound 952018] | 5.30 to 6.00 | 6.00 to 7.00 | 
19 | CC[C@]1(c2cccc(-c3cnn4c3OCCC4)c2)C2=C(CC(C)(C)NC2=O)Nc2n[nH]cc21 [Compound 952019] | 6.00 to 7.00 | ≥ 7.00 | 
20 | CC[C@]1(c2cccc(-c3c(C)cnn3C)c2)C2=C(CC(C)(C)NC2=O)Nc2n[nH]cc21 [Compound 952021] | ≥ 7.00 | ≥ 7.00 | pIC50 [1, 11]: < 5.30; pIC50 [2, 12]: 6.00 to 7.00

Row | Compound | pIC50 [1, 5] | pIC50 [2, 6] | also measured
21 | CCC1(c2cccc(-c3cnn(CCN4CCCC4)c3)c2)C2=C(CC(C)(C)NC2=O)Nc2n[nH]cc21 (stereo not drawn) [Compound 952022] | 5.30 to 6.00 | 6.00 to 7.00 | 
22 | CCC1(c2cccc(-c3cc(C4CCCC4)nn3C)c2)C2=C(CC(C)(C)NC2=O)Nc2n[nH]cc21 (stereo not drawn) [Compound 952023] | 5.30 to 6.00 | 6.00 to 7.00 | 
23 | CC[C@]1(c2cccc(-c3cnn(-c4cccnc4)c3)c2)C2=C(CC(C)(C)NC2=O)Nc2n[nH]cc21 [Compound 952024] | < 5.30 | 6.00 to 7.00 | 
24 | CC[C@]1(c2cccc(-c3ccncc3C(F)(F)F)c2)C2=C(CC(C)(C)NC2=O)Nc2n[nH]cc21 [Compound 952025] | ≥ 7.00 | ≥ 7.00 | pIC50 [1, 11]: 5.30 to 6.00; pIC50 [2, 12]: ≥ 7.00
25 | CCC1(c2cccc(N(C)c3ncccn3)c2)C2=C(CC(C)(C)C2=O)Nc2n[nH]cc21 (stereo not drawn) [Compound 952205] | < 5.30 | 5.30 to 6.00 | 
26 | CCC1(c2cccc(-c3cnn(-c4cnccn4)c3)c2)C2=C(CC(C)(C)NC2=O)Nc2n[nH]cc21 (stereo not drawn) [Compound 952207] | 5.30 to 6.00 | 6.00 to 7.00 | 
27 | CC[C@]1(c2cccc(-c3cnn(CC(=O)N(C)C)c3)c2)C2=C(CC(C)(C)NC2=O)Nc2n[nH]cc21 [Compound 952208] | < 5.30 | 6.00 to 7.00 | 
28 | CCC1(c2cccc(-c3cnn(CC#N)c3)c2)C2=C(CC(C)(C)NC2=O)Nc2n[nH]cc21 (stereo not drawn) [Compound 952210] | 6.00 to 7.00 | ≥ 7.00 | 
29 | CC[C@@]1(c2cccc(N(C)c3ncccn3)c2)C2=C(CC(C)(C)C2=O)Nc2n[nH]cc21 [Compound 952212] | 6.00 to 7.00 | ≥ 7.00 | pIC50 [1, 11]: < 5.30; pIC50 [2, 12]: 6.00 to 7.00
30 | CC[C@]1(c2cccc(C(F)(F)F)c2)C2=C(CCN(c3cnn(C)c3C)C2=O)Nc2n[nH]cc21 [Compound 952257] | 6.00 to 7.00 | ≥ 7.00 | 
31 | CCC1(c2cccc(C(F)(F)F)c2)C2=C(CCN(c3cnn(C)c3C)C2=O)Nc2n[nH]cc21 (stereo not drawn) [Compound 952262] | < 5.30 | < 5.30 | 
32 | CC[C@]1(c2cccc(-c3c(C#N)cnn3C)c2)C2=C(CC(C)(C)NC2=O)Nc2n[nH]c(C)c21 [Compound 952410] | ≥ 7.00 | ≥ 7.00 | pIC50 [1, 11]: 5.30 to 6.00; pIC50 [2, 12]: 6.00 to 7.00
33 | CC[C@]1(c2cccc(-c3cc(-c4ccccc4)nn3C(C)C)c2)C2=C(CC(C)(C)NC2=O)Nc2n[nH]cc21 [Compound 952411] | < 5.30 | 5.30 to 6.00 | 
34 | CC1(C)CC(=O)C2=C(C1)Nc1n[nH]cc1[C@@]21CC[C@H](C(F)(F)F)C1 [Compound 952434] |  |  | pIC50 [1, 3]: 6.00 to 7.00; pIC50 [2, 4]: 6.00 to 7.00
35 | CC1(C)CC(=O)C2=C(C1)Nc1n[nH]cc1[C@]21CC[C@H](C(F)(F)F)C1 [Compound 952435] |  |  | pIC50 [1, 3]: 6.00 to 7.00; pIC50 [2, 4]: ≥ 7.00
36 | CC1(C)CC(=O)C2=C(C1)Nc1n[nH]cc1[C@@]21CC[C@@H](C(F)(F)F)C1 [Compound 952436] |  |  | pIC50 [1, 3]: ≥ 7.00; pIC50 [1, 8]: 5.30 to 6.00; pIC50 [2, 4]: ≥ 7.00; pIC50 [2, 10]: 5.30 to 6.00
37 | CC1(C)CC(=O)C2=C(C1)Nc1n[nH]cc1[C@]21CC[C@@H](C(F)(F)F)C1 [Compound 952437] |  |  | pIC50 [1, 3]: 6.00 to 7.00; pIC50 [2, 4]: 6.00 to 7.00
38 | CC[C@@]1(c2cccc(C(F)(F)F)c2)C2=C(CCN(c3cn(C)c(C)n3)C2=O)Nc2n[nH]cc21 [Compound 952478] | < 5.30 | 5.30 to 6.00 | 
39 | CC[C@]1(c2cccc(C(F)(F)F)c2)C2=C(CCN(c3cn(C)c(C)n3)C2=O)Nc2n[nH]cc21 [Compound 952479] | < 5.30 | < 5.30 | 
